Consider six compounds from ChEMBL document CHEMBL2034982, “Synthesis of new 2-galactosylthiazolidine-4-carboxylic acid amides. Antitumor evaluation against melanoma and breast cancer cells” (Eur J Med Chem, 2012).

A word on the IC50: it is the concentration needed to halve the response being measured. Lower therefore signals higher potency.

Each structure is given as a SMILES string. Activity calls are given as the source filed them. The rule behind the calls is not given here. A value given as a limit tells only on which side of the number the result lay.

Test [1] deals with A-375. The experiment in a line: Cytotoxicity against human A375 cells after 48 hrs by MTT assay. Format: functional, cell-based. To be noted: for IC50: A-375, 48 h. For orientation: Tetrazolium assays rely on reduction of a dye to a coloured formazan, in cell work by metabolically active cells.
A short description of test [2]: Cytotoxicity against human HFF1 cells after 48 hrs by MTT assay. The conditions noted are these: HFF-1, 48 h. The test is classed as cell-based.
Test [3] concerns MCF7. As to the kind of experiment: Selectivity index, ratio of IC50 for human HFF1 cells to IC50 for human MCF7 cells. The test is classed as functional.
In test [4] the test system is MCF7. The experiment in a line: Cytotoxicity against human MCF7 cells after 48 hrs by MTT assay. Format: functional, cell-based. The conditions noted are these: for IC50: MCF7, 48 h.
Test [5] concerns A-375. As to the kind of experiment: Selectivity index, ratio of IC50 for human HFF1 cells to IC50 for human A375 cells. Format: functional.
Test [6] has as its system HCC1806. As to the kind of experiment: Cytotoxicity against human HCC1806 cells after 48 hrs by MTT assay. Format: functional, cell-based. The conditions noted are these: HCC1806, 48 h.
For test [7], the system named is A-375. As to the kind of experiment: Cytotoxicity against human A375 cells assessed as increase in apoptotic cells at 17 to 30 uM after 48 hrs by annexin V/propidium iodide staining based FACS flow cytometry. The test is classed as functional, cell-based.
For test [8], the system named is A-375. As to the kind of experiment: Cytotoxicity against human A375 cells assessed as increase in late apoptotic cells at 17 to 30 uM after 48 hrs by annexin V/propidium iodide staining based FACS flow cytometry. The test is classed as functional, cell-based. Background: A flow cytometer gives signals particle by particle.
Test [9] concerns A-375. As to the kind of experiment: Cell cycle arrest in human A375 cells assessed as accumulation at S phase at 17 uM after 48 hrs using propidium iodide staining by FACS flow cytometry (reference value: 23.0 +/- 3.3%). The test is classed as functional.
Test [10] relates to A-375. The experiment in a line: Cytotoxicity against human A375 cells after 48 hrs by annexin V/propidium iodide staining based FACS flow cytometry. The test is classed as functional, cell-based.
Test [11] has as its system A-375. The experiment in a line: Cytotoxicity against human A375 cells assessed as increase in necrotic cells at 17 to 30 uM after 48 hrs by annexin V/propidium iodide staining based FACS flow cytometry. The test is classed as functional, cell-based.
Test [12] relates to A-375. The experiment in a line: Cell cycle arrest in human A375 cells assessed as accumulation at sub G1 phase at 30 uM after 48 hrs using propidium iodide staining by FACS flow cytometry. Format: functional.
Test [13] deals with A-375. As to the kind of experiment: Cell cycle arrest in human A375 cells assessed as accumulation at G1 phase at 17 uM after 48 hrs using propidium iodide staining by FACS flow cytometry (reference value: 66.4 +/- 4.1%). Format: functional.
The test system of test [14] is A-375. The experiment in a line: Cell cycle arrest in human A375 cells assessed as accumulation at G2 phase at 30 uM after 48 hrs using propidium iodide staining by FACS flow cytometry (reference value: 10.6 +/- 1.2%). Format: functional.
Test [15] has as its system A-375. The experiment in a line: Cell cycle arrest in human A375 cells assessed as accumulation at G2 phase at 17 uM after 48 hrs using propidium iodide staining by FACS flow cytometry (reference value: 10.6 +/- 1.2%). Format: functional.
Test [16] deals with A-375. As to the kind of experiment: Induction of apoptosis in human A375 cells after 48 hrs using propidium iodide staining by FACS flow cytometry. The test is classed as functional, cell-based.
Test [17] has as its system A-375. The experiment in a line: Induction of apoptosis in human A375 cells assessed as increase in ratio of Bax/Bcl2 at 30 uM after 48 hrs by fluorescence assay relative to control. Format: functional, cell-based.
Test [18] deals with A-375. As to the kind of experiment: Cell cycle arrest in human A375 cells assessed as accumulation at S phase at 30 uM after 48 hrs using propidium iodide staining by FACS flow cytometry (reference value: 23.0 +/- 3.3%). The test is classed as functional.
Test [19] relates to A-375. The experiment in a line: Cell cycle arrest in human A375 cells assessed as accumulation at sub G1 phase at 17 uM after 48 hrs using propidium iodide staining by FACS flow cytometry. The test is classed as functional.
The subject of test [20] is A-375. As to the kind of experiment: Cytotoxicity against human A375 cells assessed as decrease in viable cells at 17 to 30 uM after 48 hrs by annexin V/propidium iodide staining based FACS flow cytometry. The test is classed as functional, cell-based.
For test [21], the system named is A-375. As to the kind of experiment: Induction of apoptosis in human A375 cells assessed as increase in ratio of Bax/Bcl2 at 17 uM after 48 hrs by fluorescence assay relative to control. Format: functional.
In test [22] the test system is A-375. As to the kind of experiment: Cell cycle arrest in human A375 cells assessed as accumulation at G1 phase at 30 uM after 48 hrs using propidium iodide staining by FACS flow cytometry (reference value: 66.4 +/- 4.1%). Format: functional.

In [1], `CN(C)/N=N/c1[nH]cnc1C(N)=O` [DACARBAZINE] came in with an IC50 greater than 500 µM.
As to `CCCCCCCCCCCCCCNC(=O)C1CSC([C@H](O)[C@@H](OC(C)=O)[C@@H](OC(C)=O)[C@@H](COC(C)=O)OC(C)=O)N1C(C)=O` (mixture of isomers), the IC50 is 19.6 µM in [2], 8.4 µM in [4] and 19.6 µM in test [1]. Besides, the “Ratio IC50” value amounted to 2.2 in test [3] and 1 in [5]. Moreover, the Activity result in [4] and in test [1] was “Dose-dependent effect” throughout.
Turning to `CC(=O)O[C@@]12CO[C@@H]1C[C@H](O)[C@@]1(C)C(=O)[C@H](O)C3=C(C)[C@@H](OC(=O)[C@H](O)[C@@H](NC(=O)OC(C)(C)C)c4ccccc4)C[C@@](O)([C@@H](OC(=O)c4ccccc4)[C@H]21)C3(C)C` [DOCETAXEL], the IC50 in test [4] was 11.9 µM; in test [6], 8.4 µM.
Turning to `CCCCCCCCCCCCCCCCNC(=O)C1CSC([C@H](O)[C@@H](OC(C)=O)[C@@H](OC(C)=O)[C@@H](COC(C)=O)OC(C)=O)N1C(C)=O` (mixture of isomers), the IC50 in test [2] was 29.8 µM; in test [4] it was 5.8 µM; in test [6], 12.6 µM; in [1], 17 µM. The result in [7], in test [8], in [11], in test [17] and in [20] was Active. Besides, the “Ratio IC50” value in test [3] is 5.8; in test [5] it was 1.8. Also, the Activity entry is “Dose-dependent effect” in test [4]; 23.6% in [9]; “Dose-dependent effect” in [10]; 16.6% in test [12]; 60.6% in test [13]; “Dose-dependent effect” in test [1]. Also, the Activity in [14] was 10.2%; in test [15] it was 16%; in test [16] it was “Dose-dependent effect”; in test [18], 46%; in test [19], 5.6%; in test [22] it was 43.6%. Also, in test [21], the Ratio is reported as 2.
Regarding `CCCCCCCCCCCCNC(=O)C1CSC([C@H](O)[C@@H](OC(C)=O)[C@@H](OC(C)=O)[C@@H](COC(C)=O)OC(C)=O)N1C(C)=O` (mixture of isomers), the IC50 in test [2] is 2.9 µM; in test [4] it was 7.5 µM; in test [1], 23.1 µM. The figures for the “Ratio IC50” value in [3] and in test [5] were 0.91 and 0.22, respectively. Further, the Activity entry in [4] and in [1] was “Dose-dependent effect” each time.
In the case of `CCCCCCCCCCCCCCCCCCNC(=O)C1CSC([C@H](O)[C@@H](OC(C)=O)[C@@H](OC(C)=O)[C@@H](COC(C)=O)OC(C)=O)N1C(C)=O` (mixture of isomers), the IC50 in test [2] amounted to 27.2 µM; in [4], 7.7 µM; in [1], 20.5 µM. Further, the “Ratio IC50” value in [3] is 3; in [5] it was 1.1. In addition, the Activity result in test [4] and in test [1] was “Dose-dependent effect” each time.
